Experimental data from patent US20070203073A1 (priority 2005, published 2007).
Entries after “also recorded” stand apart in the source; their conditions may differ. Where a SMILES comes first, the peptide text is derived from it. [ ]: non-standard residue; d: D form. The star is where a group is joined. Sta = CC(C)C[C@H](N)[C@@H](O)CC(=O)O; Isovaleryl = CC(C)CC(=O)*; Cbz = O=C(OCc1ccccc1)*; CH2F = FC*

Legend:
[1] = tested on: VSV-G; assay type: cell-based
[2] = tested on: SARS-CoV S protein; assay: microbe, parasite or virus in culture; assay type: cell-based
[3] = tested on: EboV GP glycoprotein; assay type: cell-based
[4] = target: human cathepsin L (Homo sapiens, UniProt P07711); assay type: biochemical
Chain of human cathepsin L (P07711 114-333): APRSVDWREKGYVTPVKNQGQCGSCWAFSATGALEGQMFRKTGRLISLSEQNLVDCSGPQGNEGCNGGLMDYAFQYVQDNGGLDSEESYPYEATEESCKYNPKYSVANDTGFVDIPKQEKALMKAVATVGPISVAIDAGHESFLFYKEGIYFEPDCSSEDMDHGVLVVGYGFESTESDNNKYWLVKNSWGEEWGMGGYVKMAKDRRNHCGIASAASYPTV

[5] = tested on: MLV-Amphotropic Env; assay type: cell-based
[6] = target: thrombin; conditions: read-out: Ki, inhibition of thrombin; cited from earlier work
[7] = target: T1, caspase 4 (Homo sapiens, UniProt P49662); assay type: biochemical
T1 sequence (P49662 81-270 limits assumed): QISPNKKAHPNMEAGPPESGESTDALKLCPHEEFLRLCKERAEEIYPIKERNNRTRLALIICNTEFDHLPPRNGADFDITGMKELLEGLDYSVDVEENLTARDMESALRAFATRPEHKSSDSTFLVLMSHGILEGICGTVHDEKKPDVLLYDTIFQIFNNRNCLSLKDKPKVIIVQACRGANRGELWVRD
T1 sequence (P49662 290-377 limits assumed): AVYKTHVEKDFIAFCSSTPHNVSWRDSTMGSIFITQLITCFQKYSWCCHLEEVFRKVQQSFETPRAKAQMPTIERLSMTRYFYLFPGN

[8] = target: T1, caspase 4; assay: biochemical
[9] = target: T2, caspase 6 (Homo sapiens, UniProt P55212); assay: biochemical
T2 sequence (P55212 24-179 limits assumed): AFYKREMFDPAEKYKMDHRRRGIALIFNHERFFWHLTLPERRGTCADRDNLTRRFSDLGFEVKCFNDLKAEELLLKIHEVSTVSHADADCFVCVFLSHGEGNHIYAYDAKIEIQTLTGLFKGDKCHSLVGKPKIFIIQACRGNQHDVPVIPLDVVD
T2 sequence (P55212 194-293 limits assumed): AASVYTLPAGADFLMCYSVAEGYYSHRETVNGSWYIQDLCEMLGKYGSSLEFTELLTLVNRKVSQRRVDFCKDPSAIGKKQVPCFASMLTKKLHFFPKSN

[10] = target: T3, caspase 2 (Homo sapiens, UniProt P42575); assay type: biochemical
T3 sequence (P42575 170-325 limits assumed): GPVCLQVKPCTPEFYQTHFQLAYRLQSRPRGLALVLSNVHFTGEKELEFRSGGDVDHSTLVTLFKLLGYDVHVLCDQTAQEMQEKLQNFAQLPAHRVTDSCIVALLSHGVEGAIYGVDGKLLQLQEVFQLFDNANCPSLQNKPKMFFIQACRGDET
T3 sequence (P42575 348-452 limits assumed): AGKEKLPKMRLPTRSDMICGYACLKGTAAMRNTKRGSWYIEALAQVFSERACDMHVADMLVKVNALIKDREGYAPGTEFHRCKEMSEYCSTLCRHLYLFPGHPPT

[11] = target: T2, caspase 6; assay type: biochemical
[12] = target: T3, caspase 2; assay: biochemical
[13] = tested on: ASLV-A Env; assay type: cell-based
[14] = tested on: SARS-CoV (strain Tor2); assay type: cell-based
[15] = tested on: SARS-CoV S protein; assay type: cell-based
[16] = IC50 against the three caspases (range stated for all)

CCCNC(=O)[C@H]1O[C@@H]1C(=O)N[C@H](C(=O)N1CCC[C@H]1C(=O)O)[C@@H](C)CC [CA-074]
effect on infection of HIV-luc(VSV-G) [1]: did not dramatically affect infection | effect on infection of HIV-luc(SARS S) [2]: did not dramatically affect infection

CC(C)[C@H](NC(=O)OCc1ccccc1)C(=O)N[C@H](C=O)Cc1ccccc1 [MDL 28170, Z-Val-Phe-CHO] (Cbz-Val-Phe-aldehyde)
effect on VSV pseudotype entry [1]: not inhibited | effect on EboV GP pseudotype entry/infection [3]: inhibits entry; also recorded: potently and specifically inhibits pseudotype infection | effect on SARS CoV S pseudotype entry/infection [2]: inhibits entry; also recorded: potently and specifically inhibits pseudotype infection | IC50 ([2]; read-out: IC50, pseudotype virion entry into cells): ~0.1 µM | hit in cathepsin L microarray screen [4]: inhibitors and hits | effect on MLV pseudotype entry [5]: not inhibited

CC(C)C[C@H](NC(=O)[C@H](CC(C)C)NC(=O)[C@H](CC(C)C)NC(=O)OCc1ccccc1)C(=O)CF [Z-LLL-FMK, Z-leu-leu-leu-fluoromethyl ketone] (Cbz-Leu-Leu-Leu-CH2F)
effect on infection of HIV-luc(VSV-G) [1]: but not HIV-luc(VSV-G) | effect on infection of HIV-luc(SARS S) [2]: efficiently inhibited infection

Cl.N [ammonium chloride]
effect on infection mediated by VSV-G [1]: dramatically reduced infection | effect on infection mediated by S protein [2]: dramatically reduced infection

N=C(N)c1ccccc1 [benzamidine]
Ki [6]: 300 to 1000 µM

CC1=NN(c2ccccc2)C(=O)C1=NNc1c(Br)cc(Br)cc1Br [compound 1, 5-methyl-2-phenyl-4-[(2,4,6-tribromo-phenyl)-hydrazono]-2,4-dihydro-pyrazol-3-one]
substrate conversion in microarray screen [7]: reduced substrate conversion | inhibition [8]: 100% | IC50 ([8]; IC50 against caspase 4): ~500 µM | IC50 [8, 16]: 500 to 5000 µM | inhibition [9]: 100% | IC50 ([9]; IC50 against caspase 6): ~5000 µM | IC50 [9, 16]: 500 to 5000 µM | substrate conversion in microarray screen [10]: reduced substrate conversion | substrate conversion in microarray screen [11]: low substrate conversion | inhibition [12]: 100% | IC50 ([12]; IC50 against caspase 2): ~5000 µM | IC50 [12, 16]: 500 to 5000 µM

CC(=O)N[C@@H](CC(C)C)C(=O)N[C@@H](CC(C)C)C(=O)N[C@H](C=O)CCCNC(=N)N [leupeptin]
effect on infection mediated by VSV-G [1]: not inhibited | concentration necessary to achieve 95% inhibition of S protein-mediated entry [2]: 100 µg/mL | inhibition at 10 µg/mL ([2]; Severe acute respiratory syndrome coronavirus, HEK-293T, 10 μg/ml, read-out: inhibition of entry mediated by SARS-CoV S protein): > 95% | effect on ASLV-A Env mediated infection [13]: no effect | effect on SARS-CoV replication [14]: little or no effect | effect on infection by replication-competent SARS-CoV [14]: inhibited | hit in cathepsin L microarray screen [4]: inhibitors and hits | effect on S protein-mediated intervirion fusion (luciferase activity) [15]: S protein-mediated fusion was lost | effect on infection mediated by MLV-Amphotropic Env [5]: not inhibited

CC(C)CC(=O)N[C@H](C(=O)N[C@H](C(=O)N[C@@H](CC(C)C)[C@@H](O)CC(=O)N[C@@H](C)C(=O)N[C@@H](CC(C)C)[C@@H](O)CC(=O)O)C(C)C)C(C)C [pepstatin] (Isovaleryl-VV[Sta]A[Sta]-OH)
effect on VSV-G mediated infection [1]: had no effect | effect on infection by pseudotypes bearing S protein [2]: had no effect

aprotinin
effect on infection by pseudotypes bearing S protein [2]: had no effect
